For one assay, the target named is JAK1 (Homo sapiens (Human), UniProt P23458). Nature of the assay: Biochemical JAK kinase assay (LanthaScreen), JAK1. The conditions noted are these: for Ki: read-out: JAK1 pKi (converted). How it is done:
(§1) A panel of four LanthaScreen JAK biochemical assays (JAK1, 2, 3 and Tyk2) were carried in a common kinase reaction buffer (50 mM HEPES, pH 7.5, 0.01% Brij-35, 10 mM MgCl2, and 1 mM EGTA). Recombinant GST-tagged JAK enzymes and a GFP-tagged STAT1 peptide substrate were obtained from Life Technologies.
(§2) Serially diluted compounds were pre-incubated with each of the four JAK enzymes and the substrate in white 384-well microplates (Corning) at ambient temperature for 1 h. ATP was subsequently added to initiate the kinase reactions in 10 μL total volume, with 1% DMSO. The final enzyme concentrations for JAK1, 2, 3 and Tyk2 are 4.2 nM, 0.1 nM, 1 nM, and 0.25 nM respectively; the corresponding Km ATP concentrations used are 25 μM, 3 μM, 1.6 μM, and 10 μM; while the substrate concentration is 200 nM for all four assays. Kinase reactions were allowed to proceed for 1 hour at ambient temperature before a 10 μL preparation of EDTA (10 mM final concentration) and Tb-anti-pSTAT1 (pTyr701) antibody (Life Technologies, 2 nM final concentration) in TR-FRET dilution buffer (Life Technologies) was added. The plates were allowed to incubate at ambient temperature for 1 h before being read on the EnVision reader (Perkin Elmer). Emission ratio signals (520 nm/495 nm) were recorded and utilized to calculate the percent inhibition values based on DMSO and background controls.
(§3) For dose-response analysis, percent inhibition data were plotted vs. compound concentrations, and IC50 values were determined from a 4-parameter robust fit model with the Prism software (GraphPad Software). Results were expressed as pIC50 (negative logarithm of IC50) and subsequently converted to pKi (negative logarithm of dissociation constant, Ki) using the Cheng-Prusoff equation.
(§4) Test compounds having a lower Ki value or higher pKi value in the four JAK assays show greater inhibition of JAK activity.

Another assay has as its target JAK2 (Homo sapiens (Human), UniProt O60674). Nature of the assay: Biochemical JAK kinase assay (LanthaScreen), JAK2. The conditions noted are these: for Ki: read-out: JAK2 pKi (converted). How it is done: as §1, §2, §3, §4
Assay [1] deals with IL-13 induced STAT6 phosphorylation in BEAS-2B human lung epithelial cells. Nature of the assay: Cellular JAKI potency assay (BEAS-2B). Type of assay: cell-based. The conditions noted are these: BEAS-2B cells; for IC50: Homo sapiens, BEAS-2B, read-out: BEAS2B pIC50 (converted). How it is done:
The JAKI cellular potency assay was carried out by measuring inhibition of interleukin-13 (IL-13, R&D Systems) induced STAT6 phosphorylation in BEAS-2B human lung epithelial cells (ATCC). BEAS-2B cells were grown at 37° C. in a 5% CO2 humidified incubator in 50% DMEM/50% F-12 medium (Life Technologies) supplemented with 10% FBS (Hyclone), 100 U/mL penicillin, 100 μg/mL streptomycin (Life Technologies), and 2 mM GlutaMAX (Life Technologies). On day 1 of the assay, cells were seeded at a 7,500 cells/well density in white poly-D-lysine-coated 384-well plates (Corning) with 25 μL medium and were allowed to adhere overnight in the incubator. On day 2 of the assay, the medium was removed and replaced with 12 μL of assay buffer (Hank's Balanced Salt Solution/HBSS, 25 mM HEPES, and 1 mg/ml bovine serum albumin/BSA) containing dose-responses of test compounds. Compounds were serially diluted in DMSO and then diluted another 1000-fold in media to bring the final DMSO concentration to 0.1%. Cells were incubated with test compounds at 37° C. for 1 h and followed by the addition of 12 μl of pre-warmed IL-13 (80 ng/mL in assay buffer) for stimulation. After incubating at 37° C. for 30 min, the assay buffer (containing compound and IL-13) was removed, and 10 μL of cell lysis buffer (25 mM HEPES, 0.1% SDS, 1% NP-40, 5 mM MgCl2, 1.3 mM EDTA, 1 mM EGTA, supplemented with Complete Ultra mini protease inhibitors and PhosSTOP from Roche Diagnostics). The plates were shaken at ambient temperature for 30 min before the addition of detection reagents. Levels of pSTAT6 were measured using the AlphaLISA SureFire Ultra pSTAT6 (Tyr641) assay kit from PerkinElmer. For dose-response analysis, percent inhibition data were plotted vs. compound concentrations, and IC50 values were determined from a 4-parameter robust fit model with the Graphpad Prism software. Results are expressed as the negative logarithm of the IC50 value, pIC50.
Test compounds having a lower IC50 value or higher pIC50 value in this assay show greater inhibition of IL-13 induced STAT6 phosphorylation.

JAK1, sequence (P23458 whole entry): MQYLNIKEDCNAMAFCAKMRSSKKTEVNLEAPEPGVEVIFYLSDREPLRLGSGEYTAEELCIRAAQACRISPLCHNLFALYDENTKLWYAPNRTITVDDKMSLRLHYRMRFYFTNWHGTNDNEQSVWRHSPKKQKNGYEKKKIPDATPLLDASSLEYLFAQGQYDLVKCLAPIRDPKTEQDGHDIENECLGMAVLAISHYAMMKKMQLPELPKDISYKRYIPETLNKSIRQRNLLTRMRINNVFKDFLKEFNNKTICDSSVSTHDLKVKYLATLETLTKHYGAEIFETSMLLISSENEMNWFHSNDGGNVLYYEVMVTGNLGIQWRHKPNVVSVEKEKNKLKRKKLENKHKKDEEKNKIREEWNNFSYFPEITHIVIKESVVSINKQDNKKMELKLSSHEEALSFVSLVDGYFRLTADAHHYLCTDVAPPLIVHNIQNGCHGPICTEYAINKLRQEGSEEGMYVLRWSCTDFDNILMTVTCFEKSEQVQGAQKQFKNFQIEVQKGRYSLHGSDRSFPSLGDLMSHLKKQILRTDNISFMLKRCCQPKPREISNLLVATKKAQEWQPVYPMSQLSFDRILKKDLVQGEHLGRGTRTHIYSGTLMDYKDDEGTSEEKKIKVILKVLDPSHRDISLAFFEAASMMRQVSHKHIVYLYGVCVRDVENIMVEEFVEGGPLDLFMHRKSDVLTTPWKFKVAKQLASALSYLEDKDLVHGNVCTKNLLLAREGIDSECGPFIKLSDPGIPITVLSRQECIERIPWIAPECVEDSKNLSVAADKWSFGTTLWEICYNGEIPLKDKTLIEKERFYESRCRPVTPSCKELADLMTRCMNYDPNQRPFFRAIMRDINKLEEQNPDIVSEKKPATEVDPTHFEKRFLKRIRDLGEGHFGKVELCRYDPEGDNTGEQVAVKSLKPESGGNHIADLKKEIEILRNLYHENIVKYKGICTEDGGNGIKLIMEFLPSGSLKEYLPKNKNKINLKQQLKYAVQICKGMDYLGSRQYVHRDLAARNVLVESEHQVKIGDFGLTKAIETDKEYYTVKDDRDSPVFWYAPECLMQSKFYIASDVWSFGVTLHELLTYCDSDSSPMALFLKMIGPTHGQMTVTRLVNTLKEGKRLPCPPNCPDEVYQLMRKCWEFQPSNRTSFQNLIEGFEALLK
JAK2, sequence (O60674 whole entry): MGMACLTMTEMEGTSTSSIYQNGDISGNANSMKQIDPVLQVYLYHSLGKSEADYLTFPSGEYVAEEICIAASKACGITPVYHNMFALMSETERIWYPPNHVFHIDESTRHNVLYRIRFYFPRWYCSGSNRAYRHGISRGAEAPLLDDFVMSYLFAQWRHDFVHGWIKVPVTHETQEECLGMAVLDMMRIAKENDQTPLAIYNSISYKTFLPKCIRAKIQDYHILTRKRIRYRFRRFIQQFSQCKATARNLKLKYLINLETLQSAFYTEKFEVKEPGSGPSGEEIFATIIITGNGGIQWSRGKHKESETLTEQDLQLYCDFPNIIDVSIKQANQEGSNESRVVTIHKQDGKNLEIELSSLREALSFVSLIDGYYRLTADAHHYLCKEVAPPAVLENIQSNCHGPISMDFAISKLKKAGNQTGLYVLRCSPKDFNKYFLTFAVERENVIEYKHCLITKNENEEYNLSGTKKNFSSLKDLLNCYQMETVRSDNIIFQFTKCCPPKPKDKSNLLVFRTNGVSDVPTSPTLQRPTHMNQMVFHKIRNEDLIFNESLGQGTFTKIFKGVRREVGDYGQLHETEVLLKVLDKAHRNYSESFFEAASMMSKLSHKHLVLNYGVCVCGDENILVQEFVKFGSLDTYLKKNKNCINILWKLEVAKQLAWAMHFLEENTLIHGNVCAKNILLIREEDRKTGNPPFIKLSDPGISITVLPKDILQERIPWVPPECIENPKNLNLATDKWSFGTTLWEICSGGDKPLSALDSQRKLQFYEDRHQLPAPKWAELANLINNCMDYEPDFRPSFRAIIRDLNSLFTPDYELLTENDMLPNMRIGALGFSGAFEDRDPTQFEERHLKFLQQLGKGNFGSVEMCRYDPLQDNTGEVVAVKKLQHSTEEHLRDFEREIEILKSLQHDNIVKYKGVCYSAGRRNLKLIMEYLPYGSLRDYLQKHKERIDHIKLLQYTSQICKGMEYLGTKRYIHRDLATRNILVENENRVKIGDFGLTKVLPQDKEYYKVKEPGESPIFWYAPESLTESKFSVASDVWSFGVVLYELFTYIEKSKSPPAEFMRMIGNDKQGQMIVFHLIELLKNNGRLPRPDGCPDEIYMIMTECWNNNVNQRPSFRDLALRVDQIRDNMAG

Take `CCc1cc(O)ccc1-c1ccc2c(-c3nc(C4=CCCN(C(C)=O)C4)c[nH]3)n[nH]c2c1` [Example 159]: the Ki on JAK1 and on JAK2 was 0.1 to 1 nM in each case. In addition, in assay [1], the IC50 was 10 to 31.6 nM.

Consider `CCc1cc(O)ccc1-c1ccc2c(-c3nc(C4=CCN(Cc5cnc[nH]5)CC4)c[nH]3)n[nH]c2c1F` [Example 136], for which the Ki on JAK1 and on JAK2 was 0.1 to 1 nM throughout. In assay [1], the IC50 is 31.6 to 100 nM.

Take `CCc1cc(O)ccc1-c1ccc2c(-c3nc(C4=C(C(=O)N(C)C)CNCC4)c[nH]3)n[nH]c2c1F` [Example 379]: the Ki at JAK1 is 0.1 to 1 nM. The “JAK2 pKi” value at JAK2 is “A (A represents a pKi value ≥10 (Ki≤0.1 nM))”. For the same molecule, the IC50 in assay [1] is 31.6 to 100 nM.

Turning to `CCc1cc(O)ccc1-c1ccc2c(-c3nc(C4=CCN([C@H]5CC[C@@H](O)CC5)C4)c[nH]3)n[nH]c2c1F` [Example 129], the “JAK1 pKi” value at JAK1 is “A (A represents a pKi value ≥10 (Ki≤0.1 nM))”. For the same molecule, the “JAK2 pKi” value at JAK2 is on record as “A (A represents a pKi value ≥10 (Ki≤0.1 nM))”. Moreover, the “BEAS2B pIC50” value in assay [1] is “A (A represents a pIC50 value between 8 (included) and 8.5)”.

In the case of `CCc1cc(O)ccc1-c1ccc2c(-c3nc(C4=CCN(CCS(C)(=O)=O)CC4)c[nH]3)n[nH]c2c1F` [Example 82], the Ki at JAK1 and at JAK2 was 0.1 to 1 nM each time. Also, the IC50 in assay [1] is 10 to 31.6 nM.

Consider `CCc1cc(O)ccc1-c1ccc2c(-c3nc(C4=CCN(CC(=O)NC)C4)c[nH]3)n[nH]c2c1F` [Example 97], for which, on JAK1, the Ki is 0.1 to 1 nM. Moreover, at JAK2, the “JAK2 pKi” value is recorded as “A (A represents a pKi value ≥10 (Ki≤0.1 nM))”. In assay [1], the IC50 is 3.16 to 10 nM.

As to `CCOC(=O)C1=C(c2c[nH]c(-c3n[nH]c4c(F)c(-c5ccc(O)cc5CC)ccc34)n2)CNCC1` [Example 301], the “JAK1 pKi” value on JAK1 was “A (A represents a pKi value ≥10 (Ki≤0.1 nM))”. Also, the Ki at JAK2 was 0.1 to 1 nM. The IC50 in assay [1] was 10 to 31.6 nM.

In the case of `CCc1cc(O)ccc1-c1ccc2c(-c3nc(C4=CC5CNCCN5CC4)c[nH]3)n[nH]c2c1F` (stereo not drawn) [Example 358], the Ki on JAK1 and on JAK2 was 0.1 to 1 nM throughout. In assay [1], the IC50 is 31.6 to 100 nM.

Consider `CCc1cc(O)ccc1-c1ccc2c(-c3nc(C4=CCN(CCNC(C)=O)C4)c[nH]3)n[nH]c2c1F` [Example 116], for which the Ki at JAK1 was 0.1 to 1 nM. Also, at JAK2, the “JAK2 pKi” value is on record as “A (A represents a pKi value ≥10 (Ki≤0.1 nM))”. Besides, the IC50 in assay [1] was 10 to 31.6 nM.

Regarding `CCc1cc(O)ccc1-c1ccc2c(-c3nc(C4=CCN(CC(=O)NC)CC4)c[nH]3)n[nH]c2c1F` [Compound 12, 2-(4-(2-(6-(2-ethyl-4-hydroxyphenyl)-7-fluoro-1H-indazol-3-yl)-1H-imidazol-4-yl)-3,6-dihydropyridin-1(2H)-yl)-N-methylacetamide], the Ki on JAK1 and at JAK2 was 0.1 to 1 nM each time. The IC50 in assay [1] is 10 to 31.6 nM.

Take `CCc1cc(O)ccc1-c1ccc2c(-c3nc(C4=CCNC(C(C)(C)C)C4)c[nH]3)n[nH]c2c1F` (stereo not drawn) [Example 370]: the Ki is 1 to 10 nM at JAK1 and 0.1 to 1 nM at JAK2. In assay [1], the IC50 is 31.6 to 100 nM.

For `CCc1cc(O)ccc1-c1ccc2c(-c3nc(C4=CCN(Cc5ccccc5)CC4)c[nH]3)n[nH]c2c1F` [Example 134], the Ki at JAK1 and at JAK2 was 1 to 10 nM each time. The IC50 in assay [1] is 100 to 316 nM.

As to `CCc1cc(O)ccc1-c1ccc2c(-c3nc(C4=C[C@H](CC(=O)N5CCCC5)NC4)c[nH]3)n[nH]c2c1F` [Example 360], on JAK1, the “JAK1 pKi” value is given as “A (A represents a pKi value ≥10 (Ki≤0.1 nM))”. In addition, the “JAK2 pKi” value at JAK2 is on record as “A (A represents a pKi value ≥10 (Ki≤0.1 nM))”. In assay [1], the IC50 was 31.6 to 100 nM.

In the case of `CCOC(=O)C[C@H]1C=C(c2c[nH]c(-c3n[nH]c4c(F)c(-c5ccc(O)cc5CC)ccc34)n2)CN1` [Example 286], the Ki on JAK1 and on JAK2 was 0.1 to 1 nM throughout. Also, in assay [1], the IC50 is 3.16 to 10 nM.

On to `CCc1cc(O)ccc1-c1ccc2c(-c3nc(C4=CCN(C(=O)NC)C4)c[nH]3)n[nH]c2c1` [Example 169], for which the Ki at JAK1 is 0.1 to 1 nM. Moreover, on JAK2, the “JAK2 pKi” value was “A (A represents a pKi value ≥10 (Ki≤0.1 nM))”. In addition, the IC50 in assay [1] is 31.6 to 100 nM.

Regarding `CCc1cc(O)ccc1-c1ccc2c(-c3nc(C4=CC[C@H](C)N(C[C@H](C)CO)C4)c[nH]3)n[nH]c2c1F` [Example 261], the Ki at JAK1 and at JAK2 was 0.1 to 1 nM throughout. Also, the IC50 in assay [1] is 10 to 31.6 nM.

As for `CCc1cc(O)ccc1-c1ccc2c(-c3nc(C4=C(C(=O)OC(C)C)CCNC4)c[nH]3)n[nH]c2c1F` [Example 315], the Ki on JAK1 and on JAK2 was 0.1 to 1 nM in each case. Further, the IC50 in assay [1] is 10 to 31.6 nM.

Consider `CCc1cc(O)ccc1-c1ccc2c(-c3nc(C4=CCN(C(=O)CN5CCCC5)C4)c[nH]3)n[nH]c2c1F` [Example 351], for which the Ki on JAK1 was 0.1 to 1 nM. The “JAK2 pKi” value at JAK2 is given as “A (A represents a pKi value ≥10 (Ki≤0.1 nM))”. The IC50 in assay [1] is 31.6 to 100 nM.

Turning to `CCc1cc(O)ccc1-c1ccc2c(-c3nc(C4=CCN(CCN5CCCC5=O)CC4)c[nH]3)n[nH]c2c1F` [Example 119], the Ki on JAK1 and on JAK2 was 0.1 to 1 nM throughout. The IC50 in assay [1] was 10 to 31.6 nM.

In the case of `CCc1cc(O)ccc1-c1ccc2c(-c3nc(C4=CCN(C(C)=O)C4)c[nH]3)n[nH]c2c1` [Example 166], the “JAK1 pKi” value on JAK1 was “A (A represents a pKi value ≥10 (Ki≤0.1 nM))”. Moreover, the “JAK2 pKi” value on JAK2 was “A (A represents a pKi value ≥10 (Ki≤0.1 nM))”. In addition, the IC50 in assay [1] was 3.16 to 10 nM.

For the molecule `CCc1cc(O)ccc1-c1ccc2c(-c3nc(C4=CC[C@H](C)N(C[C@@H](C)CO)C4)c[nH]3)n[nH]c2c1F` [Example 262], the Ki on JAK1 and at JAK2 was 0.1 to 1 nM in each case. In addition, the IC50 in assay [1] is 10 to 31.6 nM.

On to `CCc1cc(O)ccc1-c1ccc2c(-c3nc(C4=CCN(Cc5ccccc5)C4)c[nH]3)n[nH]c2c1` [Example 140], for which the Ki on JAK1 and on JAK2 was 0.1 to 1 nM throughout. Further, the IC50 in assay [1] was 31.6 to 100 nM.

Consider `CCc1cc(O)ccc1-c1ccc2c(-c3nc(C4=C[C@H](CO)N(C)C4)c[nH]3)n[nH]c2c1F` [Example 289], for which the “JAK1 pKi” value at JAK1 is “A (A represents a pKi value ≥10 (Ki≤0.1 nM))”. Also, the “JAK2 pKi” value on JAK2 is listed as “A (A represents a pKi value ≥10 (Ki≤0.1 nM))”. The IC50 in assay [1] is 3.16 to 10 nM.

As to `CCc1cc(O)ccc1-c1ccc2c(-c3nc(C4=CCCN(C5CC(O)C5)C4)c[nH]3)n[nH]c2c1` (stereo not drawn) [Example 43], the Ki at JAK1 is 0.1 to 1 nM. Moreover, at JAK2, the “JAK2 pKi” value is given as “A (A represents a pKi value ≥10 (Ki≤0.1 nM))”. In addition, the IC50 in assay [1] was 3.16 to 10 nM.

For the molecule `CCc1cc(O)ccc1-c1ccc2c(-c3nc(C4=CCCN(C(C)CO)C4)c[nH]3)n[nH]c2c1F` (stereo not drawn) [Example 46], the Ki at JAK1 and on JAK2 was 0.1 to 1 nM each time. In assay [1], the IC50 is 10 to 31.6 nM.

Take `CCc1cc(O)ccc1-c1ccc2c(-c3nc(C4=CCN(S(C)(=O)=O)CC4)c[nH]3)n[nH]c2c1` [Example 148]: the Ki at JAK1 and on JAK2 was 0.1 to 1 nM in each case. In assay [1], the IC50 is 10 to 31.6 nM.

On to `CCc1cc(O)ccc1-c1ccc2c(-c3nc(C4=CCN(C(C)=O)CC4)c[nH]3)n[nH]c2c1` [Example 147], for which the Ki on JAK1 and at JAK2 was 0.1 to 1 nM in each case. Moreover, the IC50 in assay [1] is 10 to 31.6 nM.

For the origin of these results see patent publication US20240092758A1, “IMIDAZOLO INDAZOLE COMPOUNDS AS JAK INHIBITORS” (Theravance Biopharma R&D IP, LLC, priority 2021, published 2024).
